What was measured:
H1299 cells [1] = assay: Seahorse oxygen consumption rate (mitochondrial stress test); type: cell-based, human
Procedure: (§1) Seahorse extracellular flux analyzer experiments. Cells derived from spheres or monolayer cultures were dissociated and plated overnight at 12,000 cells/well in DMEM with 10% FBS, 5 mM glucose, 1 mM pyruvate, 2 mM glutamine.
For the mitochondrial stress test, the media was replaced with DMEM without FBS or bicarbonate, containing 5 mM glucose, 1 mM pyruvate, 2 mM glutamine and placed in a CO2 free incubator at 37° C. for 1 hour, and then transferred to the Xf96 extracellular flux analyzer (Agilent; Santa Clara, CA). The program consisted of 3 measurements of OCR/ECAR before the injection of each drug: oligomycin (0.5 μM final concentration), FCCP (2 μM) and rotenone/antimycin (0.5 μM of each). […] There were 3 measurements of OCR/ECAR before each injection: glucose (10 mM final concentration), oligomycin (0.5 […] (50 mM). For the analysis of glutamine oxidation, the protocol was the same as the glucose stress test, but with glutamine being the only compound injected (final concentration 4 mM) and OCR/ECAR measured for 60 minutes. When spheres were analyzed, they were dissociated with StemPro® Accutase® (Thermo Scientific; Waltham, MA) and plated under the same conditions as above as for the monolayers the day before the assay (H1299 spheres), or in stem cell media (See Stem Cell Media) with the wells coated in 15 μL of 2% geltrex diluted in DMEM:F12 (Thermo Scientific). […]

MP1 cells [2] = assay: Apoptosis by annexin V and PI flow cytometry; type: cell-based, human
Procedure: Flow cytometry. Tumor cells were trypsinized and washed in 1×PBS. The cells were then stained with the antibodies of choice: CD166-PE (Biolegend), CD133-647 (Biolegend), or CD44 (Biolegend), in 1% BAS-PBS. The cell cycles of monolayers or spheres of the cells were analyzed by fixing the cells in cold 75% ethanol. The annexin V (Biolegend) and propidium iodide (Biolegend) experiments were carried out.

[3] = tested on: phosphofructokinase (PFK); assay: Phosphofructokinase activity in cells; type: cell-based, human; settings: 3 hours
Procedure: (§2) Cells, reagents, antibodies, primers. The H1299 cell lines and other cell lines employed in this study were obtained from ATCC or from the tissue culture core facility at LCCC. Cells were grown in Dulbecco's Modified Eagle's Medium (DMEM, 25 mM glucose, with glutamine and pyruvate from Invitrogen; Carlsbad, CA) and supplemented with 10% fetal calf serum (FCS). […] The SLC25A1 specific shRNA vectors were purchased from Sigma. The vector expressing human SLC25A1 untagged or Flag-Myc epitope tagged were from Origene; Rockville, MD (#SC120727 and RC200657, respectively). The anti-SLC25A1 antibody used in immuno-blot was from Santa Cruz Biotech, #sc-86392 employed at 1:1000 dilution. Citrate, lactate, and PFK measurements were performed by using commercially available kits (Biovision (Milpitas, CA)).

MP2 cells = assay: Seahorse OCR and ATP in patient-derived cells; type: cell-based, human
Procedure: (§3) Primary lung cancer cultures and GMSC. Surgical samples were minced and digested with dispase (50 U/ml) in DMEM media containing 5% serum for 1 hour. Pleural effusions were centrifuged, washed once in PBS, and then plated. All primary cultures were initially grown on 6-well plates pre-coated with 2% Geltrex (Life Technologies; Carlsbad, CA) and 1% Maxgel (Sigma Aldrich). Maxgel is a humanized matrix, native and non-denatured. The inclusion of Maxgel in the system enhanced the initial attachment of primary tumor cells, partially because Maxgel provides a more natural ECM conformational substrate. The day after plating, the media containing unattached cells was typically transferred to a fresh plate, in most of cases generating new attached cultures. The media (Stem Cell Media) is the DMEM/F12 (Thermo-Fisher #11320-033 basic media) supplemented with the following components: Insulin-Transferrin-Sodium selenite (ITS; 1:1000; Sigma #11884); glutamine (Thermo-Fisher) to 4 mM final concentration; sodium pyruvate (Thermo-Fisher) to 2 mM final concentration; rock inhibitor (Y-27632) 10 micrograms/mL; 2-5% Knock Out Serum Replacement (KNOSR, Thermo-Fisher #10828-028); 0.5% ALBUMAX-(Lipid enriched BSA; Thermo-Fisher #11020-021); N2 Supplement (Thermo-Fisher) 1:250; EGF (5 ng/ml; Peprotech); hFGF (20 ng/ml; Bechman); and IGF-1 (Peprotech; 10-20 ng/ml).
as §1
(§4) For the mitochondrial stress test, the media was replaced with DMEM without FBS or bicarbonate, containing 5 mM glucose, 1 mM pyruvate, 2 mM glutamine and placed in a CO2 free incubator at 37° C. for 1 hour, and then transferred to the Xf96 extracellular flux analyzer (Agilent; Santa Clara, CA). The program consisted of 3 measurements of OCR/ECAR before the injection of each drug: oligomycin (0.5 μM final concentration), FCCP (2 μM) and rotenone/antimycin (0.5 μM of each). For the glycolysis stress test, cells were plated overnight as above, and the media was washed twice the following day with DMEM without FBS, bicarbonate, glucose, glutamine or pyruvate, and incubated in this media in a CO2 free incubator with/without drug treatments at 37° C. for 4 hours. There were 3 measurements of OCR/ECAR before each injection: glucose (10 mM final concentration), oligomycin (0.5 […] (50 mM). For the analysis of glutamine oxidation, the protocol was the same as the glucose stress test, but with glutamine being the only compound injected (final concentration 4 mM) and OCR/ECAR measured for 60 minutes. When spheres were analyzed, they were dissociated with StemPro® Accutase® (Thermo Scientific; Waltham, MA) and plated under the same conditions as above as for the monolayers the day before the assay (H1299 spheres), or in stem cell media (See Stem Cell Media) with the wells coated in 15 μL of 2% geltrex diluted in DMEM:F12 (Thermo Scientific). The results were normalized to cell number.

MP1 cells [4] = assay: Seahorse OCR and ATP in patient-derived cells; type: cell-based, human; settings: GMSC versus monolayer; treatment 3 hours
Procedure: as §3, §1, §4

H1299 cells [5] = assay: Glycolysis: ECAR (Seahorse) and lactic acid levels; type: cell-based, human
Procedure: as §2, §1, §4

SLC25A1 = SLC25A1 (Homo sapiens, UniProt P53007); assay: Surface plasmon resonance (SPR) binding to recombinant purified SLC25A1; settings: steady state, 1:1 binding model; human protein
Chain of SLC25A1 (P53007 14-311): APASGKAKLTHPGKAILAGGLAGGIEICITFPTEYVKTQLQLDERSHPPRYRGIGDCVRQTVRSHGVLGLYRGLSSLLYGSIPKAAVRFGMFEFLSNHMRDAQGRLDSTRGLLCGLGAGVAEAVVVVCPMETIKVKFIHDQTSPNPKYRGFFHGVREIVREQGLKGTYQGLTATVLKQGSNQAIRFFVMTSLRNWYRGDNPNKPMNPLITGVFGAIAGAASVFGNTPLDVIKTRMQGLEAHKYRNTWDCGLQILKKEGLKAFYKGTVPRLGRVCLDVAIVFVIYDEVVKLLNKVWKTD
Procedure: Surface Plasmon Resonance (SPR). SPR experiments were performed on a Biacore 4000 instrument at room temperature. The NTA sensorchip surface was activated by injecting 0.5 mM NiCl2 for 1 minute. Histidine-tagged recombinant purified SLC25A1 protein (0.07 mg/ml stock concentration) was used as the ligand to capture on the sensor surface. SLC25A1 was dissolved (1:50 dilution) in PBS-P (20 mM phosphate buffer (pH 7.4), 2.7 mM KCl, 137 mM NaCl and 0.05% surfactant P20) buffer and captured onto spots 2 and 4. SLC25A1 was captured to a level of ˜3000. PBS-P was used as the capture running buffer. Small molecules were used as analytes to flow over the ligand immobilized surface. Spot 3 of all flow cells were used as reference. The calculated theoretical Rmax was ˜30 RU based on a 1:1 interaction. The kinetics experiments were performed in the presence of HBS-P (10 mM HEPES (pH7.4), 150 mM NaCl, and 0.05% surfactant P20). The flow rate of all the solutions was maintained at 30 μL/min. The analyte concentrations were 0 μM, […], 6.25 μM, 12.5 μM, 25 μM, 50 μM, and 100 μM. Analyte concentrations showing signs of aggregation were excluded from the analysis. Data were analyzed by Biacore BiaEvaluation software for 1:1 steady state binding model.

Question: How did the “respiratory activity of cells expressing the SLC25A1 shRNA” value (H1299 cells [1]; SLC25A1 shRNA cells) turn out when O=C(O)c1ccccc1NS(=O)(=O)c1ccc(Cl)c([N+](=O)[O-])c1 [CTPI-2] was run?
Answer: failed to affect the respiratory activity

Question: And the “respiratory capacity (OCR)” value (H1299 cells [1]; treated for three hours, spheres and monolayers)?
Answer: inhibited respiratory capacity in a dose-dependent fashion

Question: What about the apoptosis (MP1 cells [2]; co-treated with cisplatin and CTPI-2) of the same compound?
Answer: strong pro-apoptotic effect

Question: And the apoptosis (MP1 cells [2]; drug alone)?
Answer: did not induce apoptosis

Question: What about the PFK activity ([3]; monolayer differentiated cultures) of the same compound?
Answer: enhanced

Question: What about the PFK activity ([3]; spheres) of the same compound?
Answer: unchanged

Question: And the “increase of oxygen consumption rates, basal, SRC and mitochondrial ATP output in GMSC cells” value (MP2 cells; GMSC versus monolayer, treatment 3 hours)?
Answer: reverted by CTPI-2 more prominently in CSCs than in monolayer cultures

Question: What about the “basal respiration, SRC and ATP production in cisplatin treated cells” value (MP2 cells; monolayer cells exposed to cisplatin (FIG. 15A)) of the same compound?
Answer: blocked basal respiration, SRC and ATP production

Question: What about the “increase of oxygen consumption rates, basal, SRC and mitochondrial ATP output in GMSC cells” value (MP1 cells [4]) of the same compound?
Answer: reverted by CTPI-2 more prominently in CSCs than in monolayer cultures

Question: And the lactic acid levels (H1299 cells [5]; monolayer cultures)?
Answer: increase in lactic acid levels

Question: And the ECAR rates (H1299 cells [5]; monolayer cultures, after 10 mM glucose injection)?
Answer: starkly induced

Question: And the “ECAR and lactic acid levels” value (H1299 cells [5]; spheres)?
Answer: remained unchanged or were slightly diminished

Question: And the Kd (SLC25A1)?
Answer: 5.3 µM
